Each structure is given as a SMILES string. Read-outs that look alike come from different tables or passages of the source. Where only a bound is given, the exact number is not on record here.

For one data set, the target named is 3CLpro of MERS-CoV (Middle East respiratory syndrome-related coronavirus, UniProt K9N7C7). Nature of the data set: biochemical. The class given is biochemical.
Data set [1] is described as follows: Nonspecific cytotoxic effects (CC50), CytoTox 96 kit.
A further data set addresses T1, 3CLpro of SARS-CoV-2 (Severe acute respiratory syndrome coronavirus 2, UniProt P0DTD1).
T1 construct: The codon-optimized cDNA of full length of 3CLpro of SARS-CoV-2; 6xHis (N); made in house; pET-28a(+) vector (points to E. coli, my inference)
The data set is described as follows: biochemical. The class given is biochemical.

Data set [2] concerns NV in the replicon harboring cells (HG23 cells). Nature of the data set: microbe, parasite or virus in culture. The following applies: read-out: EC50 (μM) ± SD. The class given is cell-based, norovirus (NV).
Another data set addresses NV 3CLpro (Norovirus, UniProt Q83883). Nature of the data set: biochemical. It is filed as biochemical. Conditions: read-out: IC50 (μM) ± SD.

NV 3CLpro, sequence (Q83883 1101-1281): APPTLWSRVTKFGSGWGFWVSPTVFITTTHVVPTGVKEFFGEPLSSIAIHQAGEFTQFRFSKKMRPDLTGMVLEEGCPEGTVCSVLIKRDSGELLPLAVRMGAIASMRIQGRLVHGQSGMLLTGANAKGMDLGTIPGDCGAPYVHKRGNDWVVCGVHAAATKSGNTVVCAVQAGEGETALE
3CLpro of MERS-CoV, sequence (K9N7C7 3248-3553 limits assumed): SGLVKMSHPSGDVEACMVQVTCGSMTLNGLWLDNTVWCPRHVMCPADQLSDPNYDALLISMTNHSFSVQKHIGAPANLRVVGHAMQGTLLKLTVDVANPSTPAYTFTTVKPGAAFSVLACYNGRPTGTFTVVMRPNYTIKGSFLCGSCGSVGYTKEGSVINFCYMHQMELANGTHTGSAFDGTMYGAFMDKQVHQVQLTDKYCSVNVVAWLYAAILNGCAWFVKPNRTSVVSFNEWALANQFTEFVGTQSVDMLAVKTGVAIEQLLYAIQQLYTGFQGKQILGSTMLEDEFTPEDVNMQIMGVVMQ

Consider `CCCC(OC(=O)N[C@@H](CC(C)C)C(=O)N[C@@H](C[C@@H]1CCNC1=O)C(O)S(=O)(=O)O)c1ccccc1` (mixture of isomers) [Compound 23c, Sodium(2S)-1-hydroxy-2-((2S)-4-methyl-2-(((1-phenylbutoxy)carbonyl)amino)pentanamido)-3-((S)-2-oxopyrrolidin-3-yl)propane-1-sulfonate], for which, on 3CLpro of MERS-CoV (read-out: IC50), the IC50 came to 130 nM. In addition, the CC50 at 72 h in data set [1] is greater than 100000 nM.
As to `CC(C)C[C@H](NC(=O)OC1CCC(C)(C)CC1)C(=O)N[C@@H](C[C@@H]1CCNC1=O)C(O)S(=O)(=O)O` (stereo partly drawn) [Compound 1c, Sodium (2S)-2-((S)-2-((((4,4-dimethylcyclohexyl)oxy)carbonyl)amino)-4-methylpentan amido)-1-hydroxy-3-((S)-2-oxopyrrolidin-3-yl)propane-1-sulfonate], the IC50 against 3CLpro of MERS-CoV came to 90 nM; on 3CLpro of SARS-CoV-2 (read-out: IC50) it was 240 nM. The CC50 at 72 h in data set [1] was greater than 100000 nM.
At 3CLpro of MERS-CoV, `CCCCC1CCC(OC(=O)NC(CC(C)C)C(=O)NC(CC2CCNC2=O)C(O)S(=O)(=O)O)CC1` [Compound 4c, Sodium (2S)-2-((S)-2-(((((1s,4S)-4-butylcyclohexyl)oxy)carbonyl)amino)-4-methylpentan amido)-1-hydroxy-3-((S)-2-oxopyrrolidin-3-yl)propane-1-sulfonate] returned an IC50 of 150 nM. The molecule also registered a CC50 at 72 h in data set [1] greater than 100000 nM.
As to `O=C[C@H](C[C@@H]1CCNC1=O)NC(=O)[C@H](CC1CCCCC1)NC(=O)OCCCc1cccc(Cl)c1` [Compound 5j (Example 5)], the EC50 in data set [2] amounted to 0.08 ± 0.01 µM. This molecule also showed a CC50 in the data set with HG23 cells of 30300 ± 2830 nM.
As for `CC(C)C[C@H](NC(=O)OCCCc1ccccc1)C(=O)N[C@H](C=O)C[C@@H]1CCNC1=O` [Compound 5m], the IC50 at NV 3CLpro is 0.75 ± 0.07 µM. For the same molecule, the EC50 in data set [2] came out at 0.77 ± 0.06 µM. The molecule further had a cytotoxic concentration (CC50) with HG23 cells greater than 100000 nM.
For `CC(C)C[C@H](NC(=O)OCCCc1cccc(Cl)c1)C(=O)N[C@H](C=O)C[C@@H]1CCNC1=O` [Compound 5n] the same measures were 0.26 ± 0.08 µM, 0.16 ± 0.06 µM and greater than 100000 nM.
In the case of `CC(C)C[C@H](NC(=O)OCC(C)(C)Cc1cccc(Cl)c1)C(=O)N[C@H](C=O)C[C@@H]1CCNC1=O` [Compound 5o], in data set [2], the EC50 is 0.14 ± 0.04 µM. This molecule displayed a CC50 in the data set with HG23 cells greater than 100000 nM.
Regarding `CC(C)C[C@H](NC(=O)OCCCc1ccccc1)C(=O)N[C@@H](C[C@@H]1CCNC1=O)C(O)S(=O)(=O)O` (stereo partly drawn) [Compound 6m], the IC50 at NV 3CLpro stood at 0.6 ± 0.14 µM. For the same molecule, in data set [2], the EC50 came out at 0.85 ± 0.07 µM. Also, in the data set on HG23 cells, the CC50 was greater than 100000 nM.
For `CC(C)C[C@H](NC(=O)OCCCC1CCCCC1)C(=O)N[C@@H](C[C@@H]1CCNC1=O)C(O)S(=O)(=O)O` (stereo partly drawn) [Compound 7f (Scheme 1), sodium (2S)-2-((S)-2-(((3-cyclohexylpropoxy)carbonyl)amino)-4-methylpentanamido)-1-hydroxy-3-((S)-2-oxopyrrolidin-3-yl)propane-1-sulfonate], the IC50 against 3CLpro of MERS-CoV was found to be 640 nM. In data set [1], this molecule came in with a CC50 at 72 h greater than 100000 nM.
On 3CLpro of MERS-CoV, `O=C(N[C@@H](CC1CCCCC1)C(=O)N[C@@H](C[C@@H]1CCNC1=O)C(O)S(=O)(=O)O)OC1CCC(F)(F)CC1` (stereo partly drawn) [Compound 7i (Scheme 1), sodium (2S)-2-((S)-3-cyclohexyl-2-((((4,4-difluorocyclohexyl)oxy)carbonyl)amino)propan-amido)-1-hydroxy-3-((S)-2-oxopyrrolidin-3-yl)propane-1-sulfonate] returned a concentration for half-maximal inhibition (IC50) greater than 50000 nM. Also, in data set [1], the cytotoxic concentration (CC50) at 72 h is greater than 100000 nM.
For the molecule `CCCCCC(=O)OC([C@H](C[C@@H]1CCNC1=O)NC(=O)[C@H](CC1CCCCC1)NC(=O)OCC(C)(C)Cc1cccc(Cl)c1)S(=O)(=O)O` (stereo partly drawn) [Compound 7l], in data set [2], the concentration for a half-maximal effect (EC50) was 0.08 ± 0.02 µM. In the data set on HG23 cells, this molecule displayed a half-maximal cytotoxic concentration (CC50) of 20700 ± 4030 nM.
On to `CCCC1CCC(COC(=O)NC(CC(C)C)C(=O)NC(CC2CCNC2=O)C(O)S(=O)(=O)O)CC1` [Compound 8c, Sodium (2S)-1-hydroxy-2-((S)-4-methyl-2-(((((1r,4R)-4-propylcyclohexyl)methoxy)carbonyl)amino)pentanamido)-3-(2-oxopyrrolidin-3-yl) propane-1-sulfonate], for which the IC50 on 3CLpro of MERS-CoV worked out at 110 nM; at 3CLpro of SARS-CoV-2 it was 210 nM. The molecule further displayed a CC50 at 72 h in data set [1] greater than 100000 nM.
Consider `CC(C)C[C@H](NC(=O)OC(C)C1CCC(F)(F)CC1)C(=O)N[C@@H](C[C@@H]1CCNC1=O)C(O)S(=O)(=O)O` (stereo partly drawn) [Compound 12c, Sodium (2S)-2-((2S)-2-(((1-(4,4-difluorocyclohexyl)ethoxy)carbonyl)amino)-4-methylpentan amido)-1-hydroxy-3-((S)-2-oxopyrrolidin-3-yl)propane-1-sulfonate], for which the IC50 came to 120 nM at 3CLpro of MERS-CoV and 200 nM against 3CLpro of SARS-CoV-2. In data set [1], this molecule came in with a CC50 at 72 h greater than 100000 nM.
For `CC(C)C[C@H](NC(=O)OC(Cc1ccccc1)C1CCC(F)(F)CC1)C(=O)N[C@@H](C[C@@H]1CCNC1=O)C(O)S(=O)(=O)O` (stereo partly drawn) [Compound 14c, Sodium (2S)-2-((2S)-2-(((1-(4,4-difluorocyclohexyl)-2-phenylethoxy)carbonyl)amino)-4-methylpentanamido)-1-hydroxy-3-((S)-2-oxopyrrolidin-3-yl)propane-1-sulfonate], the values for the IC50 at 3CLpro of MERS-CoV and against 3CLpro of SARS-CoV-2 were 160 nM and 220 nM, respectively. Further, in data set [1], the CC50 at 72 h is greater than 100000 nM.
`CC(C)C[C@H](NC(=O)OCc1ccccc1F)C(=O)N[C@@H](C[C@@H]1CCNC1=O)C(O)S(=O)(=O)O` (stereo partly drawn) [Compound 17c, Sodium (2S)-2-((S)-2-((((2-fluorobenzyl)oxy)carbonyl)amino)-4-methylpentanamido)-1-hydroxy-3-((S)-2-oxopyrrolidin-3-yl)propane-1-sulfonate] displayed an IC50 at 3CLpro of SARS-CoV-2 of 400 nM. For the same molecule, the CC50 at 72 h in data set [1] is greater than 100000 nM.
For `CC(C)C[C@H](NC(=O)OCc1cccc(F)c1)C(=O)N[C@H](C=O)C[C@@H]1CCNC1=O` [Compound 18b, 3-Fluorobenzyl ((S)-4-methyl-1-oxo-1-(((S)-1-oxo-3-((S)-2-oxopyrrolidin-3-yl)propan-2-yl)amino)pentan-2-yl)carbamate] the same measures were 320 nM and greater than 100000 nM.
On to `CC(C)C[C@H](NC(=O)OCc1cccc(F)c1)C(=O)N[C@@H](C[C@@H]1CCNC1=O)C(O)S(=O)(=O)O` (stereo partly drawn) [Compound 18c, Sodium (2S)-2-((S)-2-((((3-fluorobenzyl)oxy)carbonyl)amino)-4-methylpentanamido)-1-hydroxy-3-((S)-2-oxopyrrolidin-3-yl)propane-1-sulfonate], for which the figures for the IC50 against 3CLpro of MERS-CoV and on 3CLpro of SARS-CoV-2 were 80 nM and 310 nM, respectively. Further, in data set [1], the CC50 at 72 h is greater than 100000 nM.
On to `CC(C)C[C@H](NC(=O)OCc1ccc(F)cc1)C(=O)N[C@@H](C[C@@H]1CCNC1=O)C(O)S(=O)(=O)O` (stereo partly drawn) [Compound 19c, Sodium (2S)-2-((S)-2-((((4-fluorobenzyl)oxy)carbonyl)amino)-4-methylpentanamido)-1-hydroxy-3-((S)-2-oxopyrrolidin-3-yl)propane-1-sulfonate], for which the IC50 at 3CLpro of SARS-CoV-2 stood at 380 nM. The CC50 at 72 h in data set [1] was greater than 100000 nM.
The molecule `CC(C)C[C@H](NC(=O)OCc1c(F)c(F)c(F)c(F)c1F)C(=O)N[C@@H](CC1CCNC1=O)C(O)S(=O)(=O)O` (stereo partly drawn) [Compound 21c, Sodium (2S)-1-hydroxy-2-((S)-4-methyl-2-((((perfluorophenyl)methoxy)carbonyl)amino)pentanamido)-3-(2-oxopyrrolidin-3-yl) propane-1-sulfonate] gave an IC50 against 3CLpro of MERS-CoV of 70 nM. The CC50 at 72 h in data set [1] was greater than 100000 nM.
As to `[2H]C([2H])(OC(=O)N[C@@H](CC(C)C)C(=O)N[C@H](C=O)CC1CCNC1=O)c1c(F)c(F)c(F)c(F)c1F` (stereo partly drawn) [Compound 22b, (Perfluorophenyl)methyl-d2 ((2S)-4-methyl-1-oxo-1-(((2S)-1-oxo-3-(2-oxopyrrolidin-3-yl)propan-2-yl)amino)pentan-2-yl) carbamate], on 3CLpro of SARS-CoV-2, the IC50 was 630 nM. In data set [1], this molecule showed a CC50 at 72 h greater than 100000 nM.
Turning to `[2H]C([2H])(OC(=O)N[C@@H](CC(C)C)C(=O)N[C@@H](CC1CCNC1=O)C(O)S(=O)(=O)O)c1c(F)c(F)c(F)c(F)c1F` (stereo partly drawn) [Compound 22c, Sodium (2S)-1-hydroxy-2-((S)-4-methyl-2-((((perfluorophenyl)methoxy-d2)carbonyl)amino)pentanamido)-3-(2-oxopyrrolidin-3-yl) propane-1-sulfonate], it took 450 nM to reach half-maximal inhibition at 3CLpro of SARS-CoV-2 (IC50). Besides, the CC50 at 72 h in data set [1] was greater than 100000 nM.
Take `CCCC(OC(=O)N[C@@H](CC(C)C)C(=O)N[C@H](C=O)C[C@@H]1CCNC1=O)c1ccccc1` (stereo partly drawn) [Compound 23b, 1-Phenylbutyl ((S)-4-methyl-1-oxo-1-(((S)-1-oxo-3-((S)-2-oxopyrrolidin-3-yl)propan-2-yl)amino)pentan-2-yl)carbamate]: the “fold more potent than the corresponding 24b/c aldehyde and bisulfite adducts” value on 3CLpro of SARS-CoV-2 worked out at 27 fold. Moreover, on 3CLpro of SARS-CoV-2 (read-out: IC50 against 3CLpro), the IC50 was determined as 150 nM. Further, the CC50 at 72 h in data set [1] was greater than 100000 nM.
`CC(C)C[C@H](NC(=O)OC(Cc1ccccc1)c1ccccc1)C(=O)N[C@H](C=O)C[C@@H]1CCNC1=O` (stereo partly drawn) [Compound 24b, 1,2-Diphenylethyl ((S)-4-methyl-1-oxo-1-(((S)-1-oxo-3-((S)-2-oxopyrrolidin-3-yl)propan-2-yl)amino)pentan-2-yl)carbamate] displayed a half-maximal inhibitory concentration (IC50) on 3CLpro of SARS-CoV-2 of 4100 nM. In data set [1], this molecule yielded a CC50 at 72 h greater than 100000 nM.
On to `CC(C)C[C@H](NC(=O)OC(Cc1ccccc1)c1ccccc1)C(=O)N[C@@H](C[C@@H]1CCNC1=O)C(O)S(=O)(=O)O` (stereo partly drawn) [Compound 24c, Sodium (2S)-2-((2S)-2-(((1,2-diphenylethoxy)carbonyl)amino)-4-methylpentanamido)-1-hydroxy-3-((S)-2-oxopyrrolidin-3-yl)propane-1-sulfonate], for which, on 3CLpro of SARS-CoV-2, it took 3500 nM to reach half-maximal inhibition (IC50). In data set [1], this molecule displayed a CC50 at 72 h greater than 100000 nM.

The values above are taken from patent US12583820B2, “Broad spectrum antivirals against coronavirus” (priority 2020, dated 2026).
